According to patent US9956181B2, “Composition of nanoformulated lycopene and method of using the composition” (priority 2015, dated 2018):

What was measured:
[1] = system: ovariectomized (OVX) rats; assay: OVX rat study: serum minerals, enzymes and hormones; format: in vivo, Wistar rats; conditions: OVX rats; lycopene 45 mg/kg/day; ALN 2.0 μg/kg/day sc; P<0.001
Procedure: (§1) A total of 264 Wistar female rats, ˜6 months old, were supplied by the Animal House at King Fahd Medical Research Center (KFMRC), KAU. Rats were housed in individual cages and maintained at 22° C. with a 12-h light/dark cycle. During the study period, rats were given standard rodent chow diet ad libitum (commercial rat cubes containing approximately 18% protein, 3% fat, 77% carbohydrate, and 2% of an inorganic-salt mixture with a vitamin supplement by weight, supplied by Grain Silos and Flour Mills Organization, Jeddah, Saudi Arabia) and water until the onset of intervention. Prior to surgery, rats were anesthetized with ketamine [(10% ketamine hydrochloride (80 mg/kg body weight), Cayman Chemical, Michigan, USA] and xylazine [(2% xylazine hydrochloride, 10 mg/kg body weight), Sigma-Aldrich Co., St. Louis, USA]. A single longitudinal skin incision was made on the dorsal midline at the level of the kidneys and both ovaries were ligated and removed to produce an ovariectomy in all OVX group animals. A SHAM-operated group, acting as a negative control for the effect of ovariectomy on bone parameters, underwent bilateral laparotomy, during which the ovaries were exposed but remained intact. […] The lycopene-supplemented groups were given lycopene (15, 30 and 45 mg/kg body weight per day) dissolved in corn oil by daily intra-gastric administration for the experimental period of 12 weeks. The SHAM, OVX and ALN control groups were given the same volume of corn oil without lycopene treatment. […] A 12-week randomized placebo-controlled study in order to examine the protective effects of lycopene supplementation on bone mass and fragility in OVX rats was concluded. Prior to surgery, body weight and bone mineral density (BMD) were obtained for all animals. Rats were randomized using a computer-generated randomization code into one of six groups: (1) sham-operated (SHAM; n=44); (2) ovariectomized control (OVX; n=44); (3) OVX lycopene-supplemented (15 mg/kg body weight per day) (n=44); (4) OVX lycopene-supplemented (30 mg/kg body weight per day) (n=44); (5) OVX lycopene-supplemented (45 mg/kg body weight per day) (n=44) and (6) OVX alendronate-treated (ALN) [2.0 μg/kg body weight per day subcutaneously (sc)] (n=44). Alendronate is an anti-resorptive agent for the treatment of osteoporosis and was used as a positive therapy control. […] All OVX groups were pair-fed with the SHAM group throughout the study to avoid the possible effects of ovariectomy-induced over-consumption and subsequent excessive weight gain. Treatment started 1 week after the surgery: this period of rest allowed the rats to recover from the stress associated with the surgery. […] Peripheral Quantitative CT (pQCT) scans were made of the proximal tibia metaphysis and the diaphysis. […]

[2] = system: ovariectomized (OVX) rats; assay: OVX rat study: biochemical bone turnover markers; format: in vivo, Wistar rats; conditions: ALN 2.0 μg/kg/day sc
Procedure: as §1

[3] = system: ovariectomized (OVX) rats; assay: OVX rat study: in vivo DXA densitometry of lumbar spine and humerus; design: species or system Wistar rats; conditions: 12 weeks, versus OVX control
Procedure: (§2) A total of 264 Wistar female rats, ˜6 months old, were supplied by the Animal House at King Fahd Medical Research Center (KFMRC), KAU. Rats were housed in individual cages and maintained at 22° C. with a 12-h light/dark cycle. During the study period, rats were given standard rodent chow diet ad libitum (commercial rat cubes containing approximately 18% protein, 3% fat, 77% carbohydrate, and 2% of an inorganic-salt mixture with a vitamin supplement by weight, supplied by Grain Silos and Flour Mills Organization, Jeddah, Saudi Arabia) and water until the onset of intervention. Prior to surgery, rats were anesthetized with ketamine [(10% ketamine hydrochloride (80 mg/kg body weight), Cayman Chemical, Michigan, USA] and xylazine [(2% xylazine hydrochloride, 10 mg/kg body weight), Sigma-Aldrich Co., St. Louis, USA]. A single longitudinal skin incision was made on the dorsal midline at the level of the kidneys and both ovaries were ligated and removed to produce an ovariectomy in all OVX group animals. A SHAM-operated group, acting as a negative control for the effect of ovariectomy on bone parameters, underwent bilateral laparotomy, during which the ovaries were exposed but remained intact. […] Peripheral Quantitative CT (pQCT) scans were made of the proximal tibia metaphysis and the diaphysis. […]

[4] = system: ovariectomized (OVX) rats; assay: OVX rat study: in vivo pQCT densitometry of tibia metaphysis; design: species or system Wistar rats; conditions: 12 weeks, versus OVX control, P<0.001
Procedure: as §2

[5] = system: ovariectomized (OVX) rats; assay: OVX rat study: ex vivo pQCT and biomechanical testing of lumbar spine and femur; format: in vivo, Wistar rats; conditions: 12 weeks
Procedure: as §1, with “surgery. In addition, after surgery, rats were administered Diclofenac sodium injection (20 mg/Kg body weight) to reduce the pain associated with the surgery. Rats were weighed and examined daily. Blood and urine samples were collected at baseline, during, and at the end of treatment for measurement of various BTMs and other analytes. In vivo dual energy x-ray absorptiometry (DXA) measurements were made for the bone mineral content (BMC) and BMD of the whole body, lumbar spine (L1-L4), and the right humerus, together with body composition at 12 weeks of treatment.” for “surgery.”

[6] = system: ovariectomized (OVX) rats; assay: OVX rat study: ex vivo μCT analysis of tibial metaphysis and femur diaphysis; format: in vivo, Wistar rats
Procedure: (§3) A total of 264 Wistar female rats, ˜6 months old, were supplied by the Animal House at King Fahd Medical Research Center (KFMRC), KAU. Rats were housed in individual cages and maintained at 22° C. with a 12-h light/dark cycle. During the study period, rats were given standard rodent chow diet ad libitum (commercial rat cubes containing approximately 18% protein, 3% fat, 77% carbohydrate, and 2% of an inorganic-salt mixture with a vitamin supplement by weight, supplied by Grain Silos and Flour Mills Organization, Jeddah, Saudi Arabia) and water until the onset of intervention. Prior to surgery, rats were anesthetized with ketamine [(10% ketamine hydrochloride (80 mg/kg body weight), Cayman Chemical, Michigan, USA] and xylazine [(2% xylazine hydrochloride, 10 mg/kg body weight), Sigma-Aldrich Co., St. Louis, USA]. A single longitudinal skin incision was made on the dorsal midline at the level of the kidneys and both ovaries were ligated and removed to produce an ovariectomy in all OVX group animals. A SHAM-operated group, acting as a negative control for the effect of ovariectomy on bone parameters, underwent bilateral laparotomy, during which the ovaries were exposed but remained intact. […] The lycopene-supplemented groups were given lycopene (15, 30 and 45 mg/kg body weight per day) dissolved in corn oil by daily intra-gastric administration for the experimental period of 12 weeks. The SHAM, OVX and ALN control groups were given the same volume of corn oil without lycopene treatment. […] A 12-week randomized placebo-controlled study in order to examine the protective effects of lycopene supplementation on bone mass and fragility in OVX rats was concluded. Prior to surgery, body weight and bone mineral density (BMD) were obtained for all animals. Rats were randomized using a computer-generated randomization code into one of six groups: (1) sham-operated (SHAM; n=44); (2) ovariectomized control (OVX; n=44); (3) OVX lycopene-supplemented (15 mg/kg body weight per day) (n=44); (4) OVX lycopene-supplemented (30 mg/kg body weight per day) (n=44); (5) OVX lycopene-supplemented (45 mg/kg body weight per day) (n=44) and (6) OVX alendronate-treated (ALN) [2.0 μg/kg body weight per day subcutaneously (sc)] (n=44). Alendronate is an anti-resorptive agent for the treatment of osteoporosis and was used as a positive therapy control. […] All OVX groups were pair-fed with the SHAM group throughout the study to avoid the possible effects of ovariectomy-induced over-consumption and subsequent excessive weight gain. Treatment started 1 week after the surgery: this period of rest allowed the rats to recover from the stress associated with the surgery. In addition, after surgery, rats were administered Diclofenac sodium injection (20 mg/Kg body weight) to reduce the pain associated with the surgery. Rats were weighed and examined daily. Blood and urine samples were collected at baseline, during, and at the end of treatment for measurement of various BTMs and other analytes. In vivo dual energy x-ray absorptiometry (DXA) measurements were made for the bone mineral content (BMC) and BMD of the whole body, lumbar spine (L1-L4), and the right humerus, together with body composition at 12 weeks of treatment. One day following the post-test DXA assessments (at 12 weeks, 16 rats in each group), animals were euthanized by decapitation and right and left femurs were extracted for further biomechanical and histomorphometric analyses. Blood and urine samples were collected from all experimental groups to measure biochemical analytes and BTMs at baseline and 4, 8, and 12 weeks of treatment. Peripheral Quantitative CT (pQCT) scans were made of the proximal tibia metaphysis and the diaphysis. In vivo micro-computed tomographic (μCT) scans of the proximal tibia were obtained during the treatment period to monitor changes in bone mass and microarchitecture. […]

[7] = system: ovariectomized (OVX) rats; assay: OVX rat study: dynamic bone histomorphometry of tibial metaphysis and diaphysis; format: in vivo, Wistar rats; conditions: ALN group, tibial diaphysis, for the most part
Procedure: as §3

[8] = 12 weeks, lycopene, ALN 2.0 μg/kg/day, P<0.001

NCCCC(O)(P(=O)(O)O)P(=O)(O)O [ALN, alendronate, reference compound]
serum PTH values versus other groups [1]: significantly higher | OVX-induced increases in s-CTX and u-DPD levels ([2]; P<0.001): prevented | s-OC and s-PINP levels compared with OVX control ([2]; week 12, P<0.001): significantly decreased | OVX-induced bone loss (BMC and BMD, lumbar spine and humerus, DXA) [3]: prevented | OVX-induced bone loss (total and trabecular BMD, proximal tibia, pQCT) [4]: prevented | OVX-induced decrease in cortical thickness ([5]; lycopene particularly 45 mg/kg/day, alendronate 2.0 μg/kg/day): prevented | lumbar spine biomechanical / bone strength parameters ([5]; lycopene particularly 30 and 45 mg/kg/day, ALN 2.0 μg/kg/day, P<0.05): significantly increased | decrease in Tb.Sp, tibia metaphysis (μCT), compared with OVX group [6, 8]: 37.3% | increase in BV/TV, tibia metaphysis (μCT), compared with OVX group [6, 8]: 128.9% | increase in Tb.N, tibia metaphysis (μCT), compared with OVX group [6, 8]: 25.8% | relative bone volume (BV/TV) of the femur diaphysis (μCT) ([6]; OVX rats, 12 weeks): nor lycopene or ALN treatment had significant effects | femoral cortical values for Ct.Th and Ct.Po (μCT) ([6]; lycopene 30 and 45 mg/kg/day, ALN, versus SHAM and OVX groups): improved | OVX-induced effects on cortical bone indices [7]: also prevented
